This is an account of results in PMC4750079, “Tackling amyloidogenesis in Alzheimer’s disease with A2V variants of Amyloid-β” (Scientific Reports, 2016).

Series [1] addresses T1, Aβ1-42WT (Homo sapiens, UniProt P05067).
T1 construct: Aβ1-42WT oligomers were formed following incubation of Aβ1-42WT at a final concentration of 100 μM; made in house; host or cells: chemical synthesis (solid-phase Fmoc), no expression host
The series can be described thus: Atomic force microscopy of Aβ1-42WT oligomerization. It counts as biochemical. The settings on record: Aβ1-42WT 100 μM co-incubated with peptide 1:4, pH 7.4, 4 °C, 24 h, AFM. The method, then: (§1) In polarized-light and EM studies, both peptides were used at 0.125 mM, molar ratio = 1:1 or 1:4 respectively, with 20 days incubation. […] E,F: Representative Tapping mode of AFM images as determined by amplitude error data of Aβ1-42WT oligomers. Aβ1-42WT peptide 100 μM in phosphate buffer 50 mM, pH 7.4 was incubated at 4 °C for 24 h alone (E) (Z range: -10/ + 10 mV) or in presence of Aβ1-6A2VTAT(D) (F) (Z range: -10/ + 25 mV). The molar ratio of Aβ1-42WT to Aβ1-6A2VTAT(D) was 1:4. Scale bar: 1 μm, inset: 200 nm. (G,H): height plot profiles obtained along different lines traced on the topographic AFM images.
Aβ1-42WT oligomers were formed following incubation of Aβ1-42WT at a final concentration of 100 μM in phosphate buffer 50 mM, pH 7.4 at 4 °C for 24 h, alone or in presence of Aβ1-6A2VTAT(D), at 1:4 molar ratio. Sample solutions were diluted to a final concentration of 10 μM of Aβ1-42WT with phosphate buffer and 50 μl of each solution was immediately added onto freshly cleaved mica at room temperature for 2 minutes. Samples were washed and dried under gentle nitrogen flow. AFM analyses were carried out on a Multimode AFM with a Nanoscope V system (Veeco/Digital Instruments). AFM images were analysed using the Scanning Probe Image Processor data analysis package. All the topographic patterns and SPIP characterization were verified via additional measurements on a minimum of five different, well separated areas.

For series [2], the target named is T1, Aβ1-42WT. The series can be described thus: Polarized light and electron microscopy of Aβ1-42WT aggregates. It counts as biochemical. Particulars: 20 days incubation, 37 °C, molar ratio 1:1 or 1:4. The method, then: as §1, with “Figure 3 Inhibition of aggregation of Aβ1-42WT by Aβ1-6A2VTAT(D). Polarized-light (A,B), electron microscopy (C,D) and atomic force microscopy (AFM) (E–H) studies showing the inhibitory effects of Aβ1-6A2VTAT(D) on amyloid formation, fibril production and oligomerization by Aβ1-42WT. In” for “In”
Aβ1-42WT, Aβ1-6A2VTAT(D) were dissolved in 10 mM NaOH and then diluted in an equal volume of 100 mM Tris-HCl, pH 7.0, to final concentrations (0.250 mM). […] The samples were incubated at 37 °C, and the tinctorial and ultrastructural properties of the peptide assemblies were determined at various intervals, ranging from 1 h to 20 days, as previously described. […]

Series [3] in a line: Brain levels after intraperitoneal administration (HPLC-MS/MS). The settings on record: mice. It counts as in vivo. The method, then: APP23 mice (Harlan, Correzzana, Italy) were treated by intraperitoneal injection with Aβ1-6A2VTAT(D) (10 mg/kg) or vehicle (saline solution) and sacrificed 1 h or 24 h after the last treatment. Aβ1-6A2VTAT(D) was quantified in mouse brain using HPLC-MS/MS[45]. The stability of Aβ1-6A2VTAT(D) to protease digestion was also investigated by MALDI TOF MS (See Supplementary Information for details).
To verify Aβ1-6A2VTAT(D) distribution in vivo, and particularly its bioavailability in the brain, we determined Aβ1-6A2VTAT(D) levels in mice brains after i.p. injection at a dose of 10 mg/kg. Mice were sacrificed at two intervals (1 h, 24 h). Aβ1-6A2VTAT(D) was then quantified in mouse brain using HPLC-MS/MS.
The quantitative levels of Aβ1-6A2VTAT(D) in the brain were determined by following a previously described procedure ^4.
Supplementary Figure 4S Aβ1-6A2VTAT(D) levels in mouse brain (n=4). Data are reported as mean ± SEM of peptide/mg tissue. Animals were treated i.p. at a dose of 10 mg/kg. Animals were sacrificed 1 h or 24 h after last administration following 21 […] treatments (*p < 0.05 T1-1h vs T1-24h and Student’s t-test).

The structures appear in SMILES notation. Where a SMILES comes first, the peptide text is derived from it. [ ]: non-standard residue; d: D form.

T1 sequence (P05067 672-713 limits assumed): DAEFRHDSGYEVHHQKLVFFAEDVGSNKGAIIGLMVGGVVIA

In the case of `CC(C)[C@@H](NC(=O)[C@H](N)CC(=O)O)C(=O)N[C@H](CCC(=O)O)C(=O)N[C@H](Cc1ccccc1)C(=O)N[C@H](CCCNC(=N)N)C(=O)N[C@H](Cc1c[nH]cn1)C(=O)NCC(=O)NCC(=O)NCC(=O)NCC(=O)NCC(=O)N[C@H](CCCNC(=N)N)C(=O)N[C@H](CCCCN)C(=O)N[C@H](CCCCN)C(=O)N[C@H](CCCNC(=N)N)C(=O)N[C@H](CCCNC(=N)N)C(=O)N[C@H](CCC(N)=O)C(=O)N[C@H](CCCNC(=N)N)C(=O)N[C@H](CCCNC(=N)N)C(=O)N[C@H](CCCNC(=N)N)C(=O)O` [Aβ1-6A2VTAT(D)] (H-[dD][dV][dE][dF][dR][dH]GGGGG[dR][dK][dK][dR][dR][dQ][dR][dR][dR]-OH; N-terminus assumed), on Aβ1-42WT [1], the “diameter of very small globular structures (~70%)” value is reported as 5-8 nm and the “oligomeric structures of Aβ1-42WT detected” value is on record as “only rare oligomeric structures were detected”. In addition, at Aβ1-42WT [2], the “amount of fibrils generated by Aβ1-42WT (electron microscopy)” value is recorded as “reduces the amount of fibrils generated by the full-length peptide” and the “formation of amyloid structures by Aβ1-42WT (polarized light)” value was “hinders the formation of amyloid structures”. The tissue level at time at 1 h in series [3] (APP23, mouse, brain, ip, i.p. 10 mg/kg once a week for five months (21 weekly treatments), 1 h, HPLC-MS/MS, mean ± SEM, n=4, read-out: brain levels 1 h after last treatment) worked out at 145 ± 38.3 ng/g. Moreover, the tissue level at time at 24 h in series [3] (APP23, mouse, brain, ip, i.p. 10 mg/kg once a week for five months (21 weekly treatments), 24 h, HPLC-MS/MS, mean ± SEM, n=4, read-out: brain levels 24 h after last treatment) amounted to 62 ± 28.7 ng/g. In addition, the “ability to cross the BBB” value in series [3] (i.p. administration) is reported as “able to cross the BBB”.
